# Data reported in article PMC8079033, “Design, synthesis, anticancer evaluation, and molecular modelling studies of novel tolmetin derivatives as potential VEGFR-2 inhibitors and apoptosis inducers” (Journal of Enzyme Inhibition and Medicinal Chemistry, 2021).
# Tests used:
# SF-539 = assay: NCI 60-cell line one-dose antiproliferative screen (SRB); type: cell-based; conditions: Homo sapiens, read-out: growth inhibition % (GI%)
# Procedure, shortened: (§1)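 Seed cells; incubate 24 h; fix time-zero plates with TCA; add compound to 10 µM; incubate 48 h at 37 °C; fix in cold TCA; stain with 0.4% SRB; solubilise in 10 mM Tris base; read 515 nm.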
# MDA-MB-231/ATCC = assay: as above; type: cell-based; conditions: Homo sapiens, read-out: growth inhibition % (GI%)
# Procedure, shortened: as §1
# IGROV1 = assay: as above; type: cell-based; conditions: Homo sapiens, IGROV-1, read-out: growth inhibition % (GI%)
# Procedure, shortened: as §1
# T-47D = assay: as above; type: cell-based; conditions: Homo sapiens, T47D, read-out: growth inhibition % (GI%)
# Procedure, shortened: as §1
# SR = assay: as above; type: cell-based; conditions: Homo sapiens, read-out: growth inhibition % (GI%)
# Procedure, shortened: as §1
# HCT-116 = assay: as above; type: cell-based; conditions: Homo sapiens, read-out: growth inhibition % (GI%)
# Procedure, shortened: as §1
# OVCAR-8 = assay: as above; type: cell-based; conditions: Homo sapiens, read-out: growth inhibition % (GI%)
# Procedure, shortened: as §1
# K-562 = assay: as above; type: cell-based; conditions: Homo sapiens, K562, read-out: growth inhibition % (GI%)
# Procedure, shortened: as §1
# CAKI-1 = assay: as above; type: cell-based; conditions: Homo sapiens, read-out: growth inhibition % (GI%)
# Procedure, shortened: as §1
# OVCAR-5 = assay: as above; type: cell-based; conditions: Homo sapiens, read-out: growth inhibition % (GI%)
# Procedure, shortened: as §1
# SF-268 = assay: as above; type: cell-based; conditions: Homo sapiens, read-out: growth inhibition % (GI%)
# Procedure, shortened: as §1
# UO-31 = assay: as above; type: cell-based; conditions: Homo sapiens, read-out: growth inhibition % (GI%)
# Procedure, shortened: as §1
# UACC-257 = assay: as above; type: cell-based; conditions: Homo sapiens, read-out: growth inhibition % (GI%)
# Procedure, shortened: as §1
# MDA-MB-468 = assay: as above; type: cell-based; conditions: Homo sapiens, read-out: growth inhibition % (GI%)
# Procedure, shortened: as §1
# NCI-H23 = assay: as above; type: cell-based; conditions: Homo sapiens, read-out: growth inhibition % (GI%)
# Procedure, shortened: as §1
# HS 578 T = assay: as above; type: cell-based; conditions: Homo sapiens, read-out: growth inhibition % (GI%)
# Procedure, shortened: as §1
# NCI-H226 = assay: as above; type: cell-based; conditions: Homo sapiens, read-out: growth inhibition % (GI%)
# Procedure, shortened: as §1
# 786-0 = assay: as above; type: cell-based; conditions: Homo sapiens, read-out: growth inhibition % (GI%)
# Procedure, shortened: as §1
# MCF7 = assay: as above; type: cell-based; conditions: Homo sapiens, read-out: growth inhibition % (GI%)
# Procedure, shortened: as §1
# EKVX = assay: as above; type: cell-based; conditions: Homo sapiens, read-out: growth inhibition % (GI%)
# Procedure, shortened: as §1
# TK-10 = assay: as above; type: cell-based; conditions: Homo sapiens, read-out: growth inhibition % (GI%)
# Procedure, shortened: as §1
# BT-5 = assay: as above; type: cell-based; conditions: Homo sapiens, read-out: growth inhibition % (GI%)
# Procedure, shortened: as §1
# SK-MEL-5 = assay: as above; type: cell-based; conditions: Homo sapiens, read-out: growth inhibition % (GI%)
# Procedure, shortened: as §1
# SN 12 C = assay: as above; type: cell-based; conditions: Homo sapiens, SN12C, read-out: growth inhibition % (GI%)
# Procedure, shortened: as §1
# A498 = assay: as above; type: cell-based; conditions: Homo sapiens, read-out: growth inhibition % (GI%)
# Procedure, shortened: as §1
# ACHN = assay: as above; type: cell-based; conditions: Homo sapiens, read-out: growth inhibition % (GI%)
# Procedure, shortened: as §1
# SNB-19 = assay: as above; type: cell-based; conditions: Homo sapiens, read-out: growth inhibition % (GI%)
# Procedure, shortened: as §1
# HOP-62 = assay: as above; type: cell-based; conditions: Homo sapiens, read-out: growth inhibition % (GI%)
# Procedure, shortened: as §1
# U251 = assay: as above; type: cell-based; conditions: Homo sapiens, U-251, read-out: growth inhibition % (GI%)
# Procedure, shortened: as §1
# LOX IMVI = assay: as above; type: cell-based; conditions: Homo sapiens, read-out: growth inhibition % (GI%)
# Procedure, shortened: as §1
# MDA-MB-435 = assay: as above; type: cell-based; conditions: Homo sapiens, read-out: growth inhibition % (GI%)
# Procedure, shortened: as §1
# NCI-H522 = assay: as above; type: cell-based; conditions: Homo sapiens, read-out: growth inhibition % (GI%)
# Procedure, shortened: as §1
# HCT-15 = assay: as above; type: cell-based; conditions: Homo sapiens, read-out: growth inhibition % (GI%)
# Procedure, shortened: as §1
# UACC-62 = assay: as above; type: cell-based; conditions: Homo sapiens, read-out: growth inhibition % (GI%)
# Procedure, shortened: as §1
# HL-60 (TB) = assay: as above; type: cell-based; conditions: Homo sapiens, read-out: growth inhibition % (GI%)
# Procedure, shortened: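 For the suspension line, settled cells were fixed with 80% TCA to a final 16%; attached lines received 50% TCA to a final 10%, 4 °C. All were treated 48 h at 10 µM, then SRB-stained.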
# SW-620 = assay: as above; type: cell-based; conditions: Homo sapiens, read-out: growth inhibition % (GI%)
# Procedure, shortened: as §1
# SF-295 = assay: as above; type: cell-based; conditions: Homo sapiens, read-out: growth inhibition % (GI%)
# Procedure, shortened: as §1
# M14 = assay: as above; type: cell-based; conditions: Homo sapiens, read-out: growth inhibition % (GI%)
# Procedure, shortened: as §1
# OVCAR-4 = assay: as above; type: cell-based; conditions: Homo sapiens, read-out: growth inhibition % (GI%)
# Procedure, shortened: as §1
# SNB-75 = assay: as above; type: cell-based; conditions: Homo sapiens, read-out: growth inhibition % (GI%)
# Procedure, shortened: as §1
# A549/ATCC = assay: as above; type: cell-based; conditions: Homo sapiens, read-out: growth inhibition % (GI%)
# Procedure, shortened: as §1
# [1] = tested on: panel of 60 tumour cell lines; assay: NCI 60-cell line one-dose screen, summary over the panel; type: cell-based, human; conditions: 10 µM
# Method: Anticancer activity screening of the newly synthesised compounds was measured in vitro utilising 60 different human tumour cell lines provided by US National Cancer Institute according to previously reported standard procedure[41–43] as follows: Cells are inoculated into 96-well microtiter plates in 100 ml. After cell inoculation, the microtiter plates are incubated at 37 °C, 5% CO2, 95% air, and 100% relative humidity for 24 h prior to addition of experimental compounds. After 24 h, two plates of each cell line are fixed in situ with TCA, to represent a measurement of the cell population for each cell line at the time of compound addition (Tz). Experimental compounds are solubilised in dimethyl sulfoxide at 400-fold the desired final maximum test concentration and stored frozen prior to use. At the time of compound addition, an aliquot of frozen concentrate is thawed and diluted to twice the desired final maximum test concentration with a complete medium containing […] gentamicin. Aliquots of […] of the compounds dilutions are added to the appropriate microtiter wells already containing 100 ml of medium, resulting in the required final compound concentration. Following compound addition, the plates are incubated for an additional 48 h at 37 °C, 5% CO2, 95% air, and 100% relative humidity. […] The bound stain is subsequently solubilised with a 10 mM trizma base, and the absorbance is read on an automated plate reader at a wavelength of 515 nm. […] Using the absorbance measurements [time zero, (Tz), control growth, (C), and test growth in the presence of compound (Ti)], the percentage growth is calculated for each compound. […]
# Fifteen newly synthesised compounds were tested for their in vitro antiproliferative activity by the National Cancer Institute (NCI), Maryland, USA[50], under the Developmental Therapeutic Program (DTP)[41]^,[43]^,[51]^,[52]. The tested compounds were evaluated at a concentration of 10 µM on a panel of 60 tumour cell lines representing leukaemia and non-small cell lung, colon, CNS, melanoma, ovarian, renal, prostate, and breast cancers. […]
# MOLT-4 = assay: NCI 60-cell line one-dose antiproliferative screen (SRB); type: cell-based; conditions: Homo sapiens, read-out: growth inhibition % (GI%)
# Procedure, shortened: as §1
# KM12 = assay: as above; type: cell-based; conditions: Homo sapiens, read-out: growth inhibition % (GI%)
# Procedure, shortened: as §1
# SK-MEL-28 = assay: as above; type: cell-based; conditions: Homo sapiens, read-out: growth inhibition % (GI%)
# Procedure, shortened: as §1
# SK-OV-3 = assay: as above; type: cell-based; conditions: Homo sapiens, read-out: growth inhibition % (GI%)
# Procedure, shortened: as §1
# NCI-H322M = assay: as above; type: cell-based; conditions: Homo sapiens, read-out: growth inhibition % (GI%)
# Procedure, shortened: as §1
# SK-MEL-2 = assay: as above; type: cell-based; conditions: Homo sapiens, read-out: growth inhibition % (GI%)
# Procedure, shortened: as §1
# CCRF-CEM = assay: as above; type: cell-based; conditions: Homo sapiens, read-out: growth inhibition % (GI%)
# Procedure, shortened: as §1
# PC-3 = assay: as above; type: cell-based; conditions: Homo sapiens, read-out: growth inhibition % (GI%)
# Procedure, shortened: as §1
# NCI/ADR-RES = assay: as above; type: cell-based; conditions: Homo sapiens, read-out: growth inhibition % (GI%)
# Procedure, shortened: as §1
compound,measurement,setting,value
"Cc1ccc(C(=O)c2ccc(CC(=O)NN=Cc3ccc4c(c3)OCO4)n2C)cc1 [Compound 5d, N′-(Benzo[d][1,3]dioxol-5-ylmethylene)-2–(1-methyl-5–(4-methylbenzoyl)-1H-pyrrol-2-yl)acetohydrazide]",inhibition at 10 µM,SF-539,< 10%
same,inhibition at 10 µM,MDA-MB-231/ATCC,< 10%
same,inhibition at 10 µM,IGROV1,< 10%
same,inhibition at 10 µM,T-47D,15.6%
same,inhibition at 10 µM,SR,< 10%
same,inhibition at 10 µM,HCT-116,< 10%
same,inhibition at 10 µM,OVCAR-8,< 10%
same,inhibition at 10 µM,K-562,< 10%
same,inhibition at 10 µM,CAKI-1,< 10%
same,inhibition at 10 µM,OVCAR-5,< 10%
same,inhibition at 10 µM,SF-268,< 10%
same,inhibition at 10 µM,UO-31,22.2%
same,inhibition at 10 µM,UACC-257,< 10%
same,inhibition at 10 µM,MDA-MB-468,< 10%
same,inhibition at 10 µM,NCI-H23,< 10%
same,inhibition at 10 µM,HS 578 T,< 10%
same,inhibition at 10 µM,NCI-H226,< 10%
same,inhibition at 10 µM,786-0,< 10%
same,inhibition at 10 µM,MCF7,< 10%
same,inhibition at 10 µM,EKVX,< 10%
same,inhibition at 10 µM,TK-10,< 10%
same,inhibition at 10 µM,BT-5,< 10%
same,inhibition at 10 µM,SK-MEL-5,< 10%
same,inhibition at 10 µM,SN 12 C,< 10%
same,inhibition at 10 µM,A498,13.1%
same,inhibition at 10 µM,ACHN,< 10%
same,inhibition at 10 µM,SNB-19,< 10%
same,inhibition at 10 µM,HOP-62,< 10%
same,inhibition at 10 µM,U251,< 10%
same,inhibition at 10 µM,LOX IMVI,< 10%
same,inhibition at 10 µM,MDA-MB-435,< 10%
same,inhibition at 10 µM,NCI-H522,12.4%
same,inhibition at 10 µM,HCT-15,< 10%
same,inhibition at 10 µM,UACC-62,< 10%
same,inhibition at 10 µM,HL-60 (TB),< 10%
same,inhibition at 10 µM,SW-620,< 10%
same,inhibition at 10 µM,SF-295,< 10%
same,inhibition at 10 µM,M14,< 10%
same,inhibition at 10 µM,OVCAR-4,< 10%
same,inhibition at 10 µM,SNB-75,< 10%
same,inhibition at 10 µM,A549/ATCC,< 10%
same,antiproliferative activity over the panel (in words),[1],inactive against most investigated cell lines
"Cc1ccc(C(=O)c2ccc(CC(=O)NN3C(=O)c4ccccc4C3=O)n2C)cc1 [Compound 7c, N-(1,3-Dioxoisoindolin-2-yl)-2–(1-methyl-5–(4-methylbenzoyl)-1H-pyrrol-2-yl) acetamide]",melting point,,> 300 °C
same,inhibition at 10 µM,MDA-MB-231/ATCC,< 10%
same,inhibition at 10 µM,IGROV1,14.8%
same,inhibition at 10 µM,T-47D,25.5%
same,inhibition at 10 µM,HCT-116,< 10%
same,inhibition at 10 µM,OVCAR-8,< 10%
same,inhibition at 10 µM,MOLT-4,10.6%
same,inhibition at 10 µM,K-562,< 10%
same,inhibition at 10 µM,CAKI-1,< 10%
same,inhibition at 10 µM,SF-268,< 10%
same,inhibition at 10 µM,KM12,< 10%
same,inhibition at 10 µM,UO-31,27.3%
same,inhibition at 10 µM,SK-MEL-28,< 10%
same,inhibition at 10 µM,NCI-H23,< 10%
same,inhibition at 10 µM,HS 578 T,< 10%
same,inhibition at 10 µM,NCI-H226,< 10%
same,inhibition at 10 µM,MCF7,< 10%
same,inhibition at 10 µM,EKVX,24.5%
same,inhibition at 10 µM,BT-5,< 10%
same,inhibition at 10 µM,SK-OV-3,< 10%
same,inhibition at 10 µM,SK-MEL-5,< 10%
same,inhibition at 10 µM,SN 12 C,< 10%
same,inhibition at 10 µM,NCI-H322M,< 10%
same,inhibition at 10 µM,A498,13.3%
same,inhibition at 10 µM,ACHN,< 10%
same,inhibition at 10 µM,SK-MEL-2,< 10%
same,inhibition at 10 µM,CCRF-CEM,< 10%
same,inhibition at 10 µM,SNB-19,< 10%
same,inhibition at 10 µM,HOP-62,< 10%
same,inhibition at 10 µM,U251,< 10%
same,inhibition at 10 µM,LOX IMVI,10.2%
same,inhibition at 10 µM,MDA-MB-435,< 10%
same,inhibition at 10 µM,NCI-H522,14.4%
same,inhibition at 10 µM,HCT-15,< 10%
same,inhibition at 10 µM,PC-3,< 10%
same,inhibition at 10 µM,HL-60 (TB),< 10%
same,inhibition at 10 µM,SW-620,< 10%
same,inhibition at 10 µM,NCI/ADR-RES,< 10%
same,inhibition at 10 µM,M14,< 10%
same,inhibition at 10 µM,SNB-75,17.9%
same,inhibition at 10 µM,A549/ATCC,14%
